Test results as given in the supplement of paper PMC11208160.

Assay: recombinant UMI read abundance after kanamycin selection (control-corrected) (log10(CPM+1)); higher = more efficient recombination; extreme values may be limits of the assay; sequences stand for … in AGTGCAGAGAAAATCGGCCAGTTTTCTCTGCCTGCAGTCCGCATGCCGTGGGACCCCTTGGGTTCTAACCTGTTGCCTAGATTTATGCAGCGGACTGCCTTTCTCCCAAAGTGATAAACCGG…AGGTTGGTTTCACT; site = the 11-nt donor
How it was run: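 Sequenced counts of recombinant UMIs were turned into CPM, averaged across replicates and scaled with control-derived factors. The reported figure is log10(CPM+1). Those UMIs, each 12 nt long, tagged donor and donor-binding-loop pairs on a plasmid with a promoterless kanamycin gene, screened as a pool in Escherichia coli with IPTG (0.07 mM) plus kanamycin or without selection.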
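Further: IS621 bridge recombinase in Escherichia coli cells against a fixed T5 target plasmid.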

Going from “CAAGTCGCATGGACCGGTTTTCCCGGTAATCCGTATTTGGG (site CAAGTCGCTCC)” to “CAAGTCGCATGGACCGGTTTTCCCGGTAATCCGTATTTGGG (site CAAGTCTCTCC)”, the “recombinant UMI read abundance (log10)” value rises from 0.908 to 1.46.

“CAAGTCTCATGGACCGGTTTTCCCGGTAATCCGTATTTGGG (site CAAGTCACTCC)” and “CAAGTCTCATGGACCGGTTTTCCCGGTAATCCGTATTTGGG (site CAAGTCCCTCC)” are within 0.2 log units of each other in “recombinant UMI read abundance (log10)” value: 0.0252 for the first, 0.019 for the second.

Compared with “CAAGTCTCATGGACCGGTTTTCCCGGTAATCCGTATTTGGG (site CAAGTCGCTCC)”, “CAAGTCTCATGGACCGGTTTTCCCGGTAATCCGTATTTGGG (site CAAGTCTCTCC)” is higher in “recombinant UMI read abundance (log10)” value: 0.02 for the first, 0.916 for the second.

First: CAAGTGACATGGACCGGTTTTCCCGGTAATCCGTATTTGGG (site CAAGTAACTCC)
Second: CAAGTGACATGGACCGGTTTTCCCGGTAATCCGTATTTGGG (site CAAGTCACTCC)
The “recombinant UMI read abundance (log10)” value of the first is higher: 1.09 for the first, 0.00913 for the second.

Compared with “CAAGTGACATGGACCGGTTTTCCCGGTAATCCGTATTTGGG (site CAAGTGACTCC)”, “CAAGTGACATGGACCGGTTTTCCCGGTAATCCGTATTTGGG (site CAAGTTACTCC)” is higher in “recombinant UMI read abundance (log10)” value: 0.246 for the first, 0.48 for the second.

Compared with “CAATACGCATGGACCGGTTTTCCCGGTAATCCGTATTTGAT (site CAATACGCTAT)”, “CAATACTCATGGACCGGTTTTCCCGGTAATCCGTATTTGAA (site CAATACTCTTT)” is higher in “recombinant UMI read abundance (log10)” value: 2.03 for the first, 3.09 for the second.

“CAATACTCATGGACCGGTTTTCCCGGTAATCCGTATTTGAA (site CAATCCTCTTT)” and “CAATACTCATGGACCGGTTTTCCCGGTAATCCGTATTTGAA (site CAATGCTCTTT)” are within 0.2 log units of each other in “recombinant UMI read abundance (log10)” value: 0 for the first, 0.0128 for the second.

“CAATACTCATGGACCGGTTTTCCCGGTAATCCGTATTTGAA (site CAATTCTCTTT)” and “CAATCACCATGGACCGGTTTTCCCGGTAATCCGTATTTGCT (site CAATCACCTAG)” are within 0.2 log units of each other in “recombinant UMI read abundance (log10)” value: 0 for the first, 0.00562 for the second.

Going from “CAATCACCATGGACCGGTTTTCCCGGTAATCCGTATTTGCT (site CGATCATCTAG)” to “CAATCATCATGGACCGGTTTTCCCGGTAATCCGTATTTGCT (site CAATCATCTAG)”, the “recombinant UMI read abundance (log10)” value rises from 0 to 2.15.

Going from “CAATCATCATGGACCGGTTTTCCCGGTAATCCGTATTTGCT (site CCATCATCTAG)” to “CAATCATCATGGACCGGTTTTCCCGGTAATCCGTATTTGCT (site CGATCATCTAG)”, the “recombinant UMI read abundance (log10)” value falls from 0.883 to 0.258.

“CAATCATCATGGACCGGTTTTCCCGGTAATCCGTATTTGCT (site CTATCATCTAG)” and “CAATCTGCATGGACCGGTTTTCCCGGTAATCCGTATTTGCT (site CAATCTGCTAG)” are within 0.2 log units of each other in “recombinant UMI read abundance (log10)” value: 0.404 for the first, 0.515 for the second.

Compared with “CAATGCCCATGGACCGGTTTTCCCGGTAATCCGTATTTGAA (site CAATGCACTTT)”, “CAATGCCCATGGACCGGTTTTCCCGGTAATCCGTATTTGAA (site CAATGCCCTTT)” is higher in “recombinant UMI read abundance (log10)” value: 0.00911 for the first, 1 for the second.

First: CAATGCCCATGGACCGGTTTTCCCGGTAATCCGTATTTGAA (site CAATGCGCTTT)
Second: CAATGCCCATGGACCGGTTTTCCCGGTAATCCGTATTTGAA (site CAATGCTCTTT)
The “recombinant UMI read abundance (log10)” value of the first is lower: 0.00922 for the first, 1.62 for the second.

Going from “CAATGCTCATGGACCGGTTTTCCCGGTAATCCGTATTTGAG (site CAATGCTCTAT)” to “CAATGCTCATGGACCGGTTTTCCCGGTAATCCGTATTTGAG (site CAATGCTCTCT)”, the “recombinant UMI read abundance (log10)” value rises from 1.46 to 2.2.

Going from “CAATGCTCATGGACCGGTTTTCCCGGTAATCCGTATTTGAG (site CAATGCTCTGT)” to “CAATGCTCATGGACCGGTTTTCCCGGTAATCCGTATTTGAG (site CAATGCTCTTT)”, the “recombinant UMI read abundance (log10)” value rises from 0.535 to 0.812.

First: CAATGGCCATGGACCGGTTTTCCCGGTAATCCGTATTTGCG (site CAATGGCCTCG)
Second: CAATGGTCATGGACCGGTTTTCCCGGTAATCCGTATTTGAA (site CAATGATCTTT)
The “recombinant UMI read abundance (log10)” value of the first is lower: 0.00456 for the first, 2.68 for the second.

Going from “CAATGGTCATGGACCGGTTTTCCCGGTAATCCGTATTTGAA (site CAATGCTCTTT)” to “CAATGGTCATGGACCGGTTTTCCCGGTAATCCGTATTTGAA (site CAATGGTCTTT)”, the “recombinant UMI read abundance (log10)” value rises from 0.00506 to 2.39.

Going from “CAATGGTCATGGACCGGTTTTCCCGGTAATCCGTATTTGAA (site CAATGTTCTTT)” to “CAATGTTCATGGACCGGTTTTCCCGGTAATCCGTATTTGAA (site CAATGATCTTT)”, the “recombinant UMI read abundance (log10)” value rises from 0 to 0.287.

“CAATGTTCATGGACCGGTTTTCCCGGTAATCCGTATTTGAA (site CAATGCTCTTT)” and “CAATGTTCATGGACCGGTTTTCCCGGTAATCCGTATTTGAA (site CAATGGTCTTT)” are within 0.2 log units of each other in “recombinant UMI read abundance (log10)” value: 0.0108 for the first, 0.0106 for the second.
